For assay [1], the system named is left atrium of rats' hearts. Briefly: Functional refractory period prolongation on isolated left atria of rats' hearts in vitro. The following applies: 10 μM. Further details: species or system rat (Sprague-Dawley). The method, then: 3. Investigation of the Functional Effectiveness of the Substances on the Atrium of Rats' Hearts in Vitro
In this test model it is determined to what extent the Kv 1.5-blocking substances of Formula I result in a prolongation of the functional refractory period in the left atrium of rats. The refractory period is the minimum possible elapsed time between the basic stimulus and additional stimulus in which a renewed contraction can be triggered. The extent of the prolongation of the functional refractory period is a measurement of the antiarrhythmic effectiveness of the substances according to the invention. The functional refractory period is determined by testing on the electrically stimulated preparation at what elapsed time from the preceding contraction a renewed contraction can be triggered by additional electrical stimuli.
The hearts were removed from freshly sacrificed rats (Sprague-Dawley, Charles-River, Germany). The left atria were isolated and fastened to force transducers in a temperature-controlled (30° C.), gasified (O2 95%, CO2 5%) organ bath which was filled with modified Tyrode solution (all values in mM: NaCl 137; KCl 2.7; CaCl2 1.8; MgCl2 0.8; NaHCO3 11.9; NaH2PO4 0.6; glucose 5). In order to trigger regular contractions, the preparations were electrically stimulated (rectangular pulses, pulse magnitude 3.5× threshold stimulus, pulse width 1.5 ms, frequency 1 Hz). Initially, the initial value of the functional refractory period was determined by applying extra pulses in addition to the basic stimulus, the elapsed time from the preceding basic stimulus being shortened until no further additional contraction could be triggered. Then the cumulative addition of increasing concentrations (0.1-10 μM) of the substances of Formula I took place at intervals of 20 min. each, the refractory period being determined again in each case 18 min. after the addition had taken place. Before the measurement, stock solutions of the test substances (3.2 and 0.32 mM in 100% DMSO) were prepared. In order to achieve the desired final concentrations of the substances (0.1-10 μM) in the organ bath (volume 100 ml), corresponding volumes of these stock solutions were then poured into the organ bath.
In each case the prolongation of the functional refractory period (FRP) in the left atrium of the rats' hearts in milliseconds observed after the addition of 10 μM of the respective substance of Formula I to the atrial preparations was given as characteristic variable.

The target of another assay is T1, Kv 1.5-potassium channel (Homo sapiens, UniProt P22460).
T1 construct: expressed in transfected cells
Briefly: In-vitro Kv 1.5-potassium channel-blocking effect (Rb+ outflow from CHO cells, atomic absorption spectroscopy). It is filed as cell-based. Conditions: CHO cells stably expressing Kv 1.5, read-out: IC50 (Kv1.5-potassium channel-blocking effect, concentration of half-maximum inhibition). The protocol: 1. In-Vitro Investigation of the Kv 1.5-Potassium Channel-Blocking Effect of the Substances
In this test model, a cell line of egg cells of the Chinese hamster (=“Chinese hamster oocytes”, “CHO”) is used which originates from a single cell and stably expresses the Kv 1.5-channel. By incubation overnight in a nutrient medium containing RbCl or a “loading buffer” (all values in mM: RbCl 5, NaCl 140, CaCl2 2, MgSO4 1, HEPES buffer 10, glucose 5) the aforementioned oocytes are loaded with Rb^+ under the influence of Na^+/K^+-ATPase. Thereafter, a portion of the oocytes is incubated as a reference standard in the absence of an inhibitor, while another portion of the oocytes is incubated in the presence of the respective inhibitory test substance of Formula I. Then the oocytes are depolarized by increasing the extracellular potassium-ion concentration, which causes the Kv 1.5-potassium channels of the oocytes to open. In the absence of an inhibitor, the Rb^+ ions flow through the Kv 1.5-potassium channels into the liquid surrounding them. In the presence of an inhibitory test substance of Formula I, on the other hand, the Rb^+ ions remain locked within the oocytes. The extent of the Kv 1.5-potassium channel-blocking effect of the test substances of Formula I is determined by measuring the Rb^+ ion concentration in the liquid surrounding them by means of atomic absorption spectroscopy against a reference standard.
Chinese hamster oocytes (see above) were cultivated in a known, RbCl-containing nutrient medium for CHO-cells and placed in the sample wells of a 96-sample capacity sample plate (“96 well plate”). The oocytes were allowed to grow overnight in order to obtain monolayers of the oocytes. Then the nutrient medium was pipetted off, and each sample well was washed three times with 100 μl portions of a preincubation buffer of low potassium-ion concentration (all values in mM: KCl 5, NaCl 140, CaCl2 2, MgSO4 1, HEPES buffer 10, glucose 5). Then 50 μl of a solution of the respective test substance (stock solution in DMSO, dilution with preincubation buffer, final concentration in the test batch 10 μM) or of the solvent (as negative controls) was added to each sample well and incubated for 10 min. in each case at room temperature. Then 50 μl of a stimulation buffer with elevated potassium-ion concentration (KCl 145 mM, NaCl 0 mM, otherwise as preincubation buffer) was added to each sample well and the samples were then incubated for a further 10 min. at room temperature. In each case, 80 μl of the liquid surrounding the oocytes from each sample well was then transferred separately to the sample wells of an analysis sample plate, and the Rb^+ ion concentration in the liquids was determined by atomic absorption spectroscopy. The test substances were each double-tested. The signal section which represented the Kv 1.5 component of the Rb^+ outflow was defined by using as positive control the known potassium channel blocker 4-AP in a high concentration (100×IC50 for the Kv 1.5 channel). This made it possible to determine which portion of the Rb^+ outflow was dependent on the influence of the 4-AP and therefore is to be assigned to the Kv 1.5 channel. For the substances which in the concentration of 10 μM used led to a reduction in the Rb^+ outflow of at least 50%, additional tests were performed with lower concentrations of the test substances in order to be able to determine the half-maximum effective concentration. In each case the concentration of half-maximum inhibition of the test substances of Formula I (IC50) was given as characteristic variable.

The target in another assay is T2, Kv 1.3-potassium channel (Homo sapiens, UniProt P22001).
T2 construct: expressed in transfected cells; host or cells: CHO cells, stably transfected with the Kv 1.3 plasmid using DMRIE-C
Briefly: In-vitro Kv 1.3-potassium channel-blocking effect (membrane potential-sensitive fluorescent dye in transfected CHO cells). Format: cell-based. The following applies: 10 μM test substance; CHO cells transfected with Kv 1.3; relative to reference margatoxin. The text has this: 2. In-Vitro Investigation of the Kv 1.3-Potassium Channel-Blocking Effect of the Substances
In this test model, known oocytes of the Chinese hamster (═CHO) are used which are stably transfected with the Kv 1.3-potassium channel. The blockade of the cell-inherent Kv 1.3-potassium channel activity in the transfected cells is accompanied by a positive shift in the membrane potential from approx. −40 mV to −30 mV, whereas in the wild-type CHO cells investigated in parallel no significant shift in the membrane potential is triggered. A change in the membrane potential is thus connected to the reduction in the Kv 1.3-potassium channel activity. By blocking the Kv 1.3-potassium channels e.g. with substances of Formula I and the resulting change in the membrane potential, an accumulation of a membrane potential-sensitive fluorescent dye in intracellular compartments of the oocytes and ultimately increasing fluorescence occurs. The change in the membrane potential of the oocytes is therefore measured indirectly via the increase in fluorescence of the membrane potential-senstive dyes.
The cells were transfected with the Kv 1.3 plasmid in known manner with a commercially obtainable transfection reagent (DMRIE-C from Gibco BRL, Germany). The successful transfection was verified by immunofluorescence and by “patch-clamp” investigations of the potassium ion current. The fluorescence measurements were performed on a Tecan Safire fluorescence reader from Tecan, Germany. In each case, the increase in the fluorescent intensity caused by the blockade of the Kv 1.3-potassium channels in the oocytes with substances of Formula I in a concentration of 10 μM was determined as characteristic variable. The increase in the fluorescent intensity was given in each case in percent (%) compared with an increase in the fluorescent intensity caused by the reference substance margatoxin. Margatoxin is known as a selective Kv 1.3-potassium channel blocker (see e.g. M. Garcia-Calvo et al., J. Biol. Chem. 268 (1993) 18866-18874).

The structures appear in SMILES notation. pIC50: −log10 of the molar value.

T2 sequence (P22001 whole entry): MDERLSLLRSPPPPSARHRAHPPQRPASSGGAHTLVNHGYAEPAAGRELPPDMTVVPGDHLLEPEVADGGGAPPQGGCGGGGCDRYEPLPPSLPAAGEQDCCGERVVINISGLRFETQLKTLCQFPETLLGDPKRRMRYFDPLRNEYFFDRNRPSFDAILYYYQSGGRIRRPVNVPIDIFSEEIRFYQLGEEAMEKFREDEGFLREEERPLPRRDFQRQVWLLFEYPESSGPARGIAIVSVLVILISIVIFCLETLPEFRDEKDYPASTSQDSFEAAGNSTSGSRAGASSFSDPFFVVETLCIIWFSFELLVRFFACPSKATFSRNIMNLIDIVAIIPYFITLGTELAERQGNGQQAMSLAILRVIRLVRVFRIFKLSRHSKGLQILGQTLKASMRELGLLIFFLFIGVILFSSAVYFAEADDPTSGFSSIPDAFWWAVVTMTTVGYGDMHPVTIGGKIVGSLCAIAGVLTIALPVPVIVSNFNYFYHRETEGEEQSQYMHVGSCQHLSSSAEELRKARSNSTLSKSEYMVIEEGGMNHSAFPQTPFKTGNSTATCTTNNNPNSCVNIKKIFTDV
T1 sequence (P22460 whole entry): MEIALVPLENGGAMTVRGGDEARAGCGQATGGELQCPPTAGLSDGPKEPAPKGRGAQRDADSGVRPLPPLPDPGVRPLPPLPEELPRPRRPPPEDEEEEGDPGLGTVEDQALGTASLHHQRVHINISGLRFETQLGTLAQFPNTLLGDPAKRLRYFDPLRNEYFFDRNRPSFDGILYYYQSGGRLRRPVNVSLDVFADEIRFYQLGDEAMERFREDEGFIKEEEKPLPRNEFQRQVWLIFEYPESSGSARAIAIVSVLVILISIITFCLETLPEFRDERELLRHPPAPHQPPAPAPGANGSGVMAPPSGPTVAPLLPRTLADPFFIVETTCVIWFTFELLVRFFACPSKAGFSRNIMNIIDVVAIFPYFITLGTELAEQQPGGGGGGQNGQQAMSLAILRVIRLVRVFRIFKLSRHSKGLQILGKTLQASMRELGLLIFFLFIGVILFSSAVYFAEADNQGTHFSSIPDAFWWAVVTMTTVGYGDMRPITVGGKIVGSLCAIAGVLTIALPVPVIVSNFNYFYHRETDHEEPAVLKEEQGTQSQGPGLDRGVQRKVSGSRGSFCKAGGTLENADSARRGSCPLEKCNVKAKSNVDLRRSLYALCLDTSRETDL

In turn, `Cc1ccc(S(=O)(=O)NC2c3cc(CC(=O)NC4CCCc5ccccc54)ccc3OC(C)(C)C2O)cc1` (mixture of isomers) [Example 15] gave an FRP prolongation in assay [1] of 30 ms. For the same compound, the pIC50 on Kv 1.5-potassium channel was 5.40.
Turning to `Cc1cccc(S(=O)(=O)NC2c3cc(CC(=O)NCc4ccc(Cl)cc4)ccc3OC(C)(C)C2O)c1` (stereo not shown) [Example 5, N-(4-chlorobenzyl)-2-(3-hydroxy-2,2-dimethyl-4-{[(3-methylphenyl)sulfonyl]amino}-3,4-dihydro-2H-chromen-6-yl)acetamide], on Kv 1.3-potassium channel, the “Increase in the fluorescent intensity (% margatoxin)” value (shortened to “Increase … (% margatoxin)”) came to 82 % margatoxin. In addition, on Kv 1.5-potassium channel, the pIC50 is 5.30.
The matching figures for `CCCCNC(=O)Cc1ccc2c(c1)C(N(CC(CC)CC)S(=O)(=O)c1cc(OC)ccc1OC)C(O)C(C)(C)O2` (stereo not shown) [Example 6]: 97 % margatoxin and 5.54.
The corresponding values for `CCCCNC(=O)Cc1ccc2c(c1)C(NS(=O)(=O)c1ccc(I)cc1)C(O)C(C)(C)O2` (stereo not shown) [Example 17] are 72 % margatoxin and 5.58.
Turning to `Cc1ccc(S(=O)(=O)N(CC2CC2)C2c3cc(CC(=O)NCc4ccccc4)ccc3OC(C)(C)C2O)cc1` (stereo not shown) [Example 18], the “Increase … (% margatoxin)” value on Kv 1.3-potassium channel was 141 % margatoxin. Moreover, the pIC50 on Kv 1.5-potassium channel was 5.57.
The corresponding values for `Cc1ccc(S(=O)(=O)N(CCC(C)C)C2c3cc(CC(=O)NCc4ccccc4)ccc3OC(C)(C)C2O)cc1` (stereo not shown) [Example 19] are 171 % margatoxin and 5.60.
Regarding `CCC(CC)CN(C1c2cc(CC(=O)NCc3ccco3)ccc2OC(C)(C)C1O)S(=O)(=O)c1cc(OC)ccc1OC` (stereo not shown) [Example 21], the “Increase … (% margatoxin)” value at Kv 1.3-potassium channel is recorded as 86 % margatoxin. Moreover, at Kv 1.5-potassium channel, the pIC50 is 5.48.
As for `CCCCCN(C1c2cc(CC(=O)NC(C)C(C)C)ccc2OC(C)(C)C1O)S(=O)(=O)c1cccc(OC)c1` (stereo not shown) [Example 22], the “Increase … (% margatoxin)” value at Kv 1.3-potassium channel is given as 71 % margatoxin. Also, the pIC50 on Kv 1.5-potassium channel was 5.47.
The matching figures for `CC(C)CCN(C1c2cc(CC(=O)NCc3ccccc3)ccc2OC(C)(C)C1O)S(=O)(=O)c1ccc(C(F)(F)F)cc1` (stereo not shown) [Example 23]: 41 % margatoxin and 5.37.
On to `CCCNC(=O)Cc1ccc2c(c1)C(N(CC(C)C)S(=O)(=O)c1ccc(F)c(Cl)c1)C(O)C(C)(C)O2` (stereo not shown) [Example 24], for which, at Kv 1.5-potassium channel, the pIC50 is 5.30.
As for `CC(C)CCN(C1c2cc(CC(=O)NCc3ccccc3)ccc2OC(C)(C)C1O)S(=O)(=O)c1ccc2ccccc2c1` (stereo not shown) [Example 25], the pIC50 on Kv 1.5-potassium channel was 5.28.
As for `CCCNC(=O)Cc1ccc2c(c1)C(N(CCC(C)C)S(=O)(=O)c1ccc(-c3ccccc3)cc1)C(O)C(C)(C)O2` (stereo not shown) [Example 26], the pIC50 on Kv 1.5-potassium channel is 5.28.
Take `COc1cccc(S(=O)(=O)N(CCC(C)C)C2c3cc(CC(=O)NCc4ccc(Cl)cc4)ccc3OC(C)(C)C2O)c1` (stereo not shown) [Example 27]: at Kv 1.5-potassium channel, the pIC50 was 5.25.

The values are drawn from patent US7368582B2, “Amidomethyl-substituted 2-(4-sulfonylamino)-3-hydroxy-3,4-dihydro-2H-chromen-6-yl compounds, a process and intermediates for their production, and pharmaceutical compositions containing them” (Solvay Pharmaceuticals GmbH, priority 2003, dated 2008).
